Measurements taken from US11999707B1, “N′-(2-(5-(4-chlorophenyl)-1,3,4-oxadiazol-2-ylthio)acetoxy)-1-naphthimidamide as an antimicrobial compound” (KING FAISAL UNIVERSITY, priority 2023, dated 2024).

Tests used:
Type in all cases: cell-based
[1] = tested on: Aspergillus flavus; assay: Agar plate disc-diffusion, antifungal, Aspergillus flavus; conditions: Fungal
Experimental: (§1) The agar plate disc-diffusion method was applied. […] The discs were then placed onto the surface of agar plates (nutrient agar for bacteria and Sabouraud's dextrose agar for fungi) seeded with the test organism. Each plate contained 15 mL of the agar medium, previously seeded with 0.2 mL of the broth culture of each organism pregrown for 18 hours. The plates were incubated at 37° C. for 48 hours and 72 hours for fungi. The inhibition zones were measured in mm. Discs impregnated with DMSO were used as a control, and their inhibition zone was subtracted from the tested compound's actual inhibition zone.

[2] = tested on: Staphylococcus aureus; assay: Agar plate disc-diffusion, antibacterial, Staphylococcus aureus; conditions: Gram positive
Experimental: as §1

[3] = tested on: Pseudomonas aeruginosa; assay: Agar plate disc-diffusion, antibacterial, Pseudomonas aeruginosa; conditions: Gram negative
Experimental: as §1

[4] = tested on: Bacillus cereus; assay: Agar plate disc-diffusion, antibacterial, Bacillus cereus; conditions: Gram positive
Experimental: as §1

[5] = tested on: Chrysosporium keratinophilum; assay: Agar plate disc-diffusion, antifungal, Chrysosporium keratinophilum; conditions: Fungal
Experimental: as §1

[6] = tested on: Escherichia coli; assay: Agar plate disc-diffusion, antibacterial, Escherichia coli; conditions: Gram negative
Experimental: as §1

[7] = A = concentration of comp. = 10,000 μL
[8] = B = concentration of comp. = 30,000 μL
[9] = C = concentration of comp. = 50,000 μL

N/C(=N\OC(=O)CSc1nnc(-c2ccc(Cl)cc2)o1)c1cccc2ccccc12 [compound 3, N′-(2-(5-(4-chlorophenyl)-1,3,4-oxadiazol-2-ylthio)acetoxy)-1-naphthimidamide]
inhibition zone, Aspergillus flavus, A [1, 7]: 24 mm | inhibition zone, Aspergillus flavus, B [1, 8]: 27 mm | inhibition zone, Aspergillus flavus, C [1, 9]: 36 mm | inhibition zone, Staphylococcus aureus, A [2, 7]: 27 mm | inhibition zone, Staphylococcus aureus, B [2, 8]: 30 mm | inhibition zone, Staphylococcus aureus, C [2, 9]: 38 mm | inhibition zone, Pseudomonas aeruginosa, A [3, 7]: 26 mm | inhibition zone, Pseudomonas aeruginosa, B [3, 8]: 28 mm | inhibition zone, Pseudomonas aeruginosa, C [3, 9]: 45 mm | inhibition zone, Bacillus Cereus, A [4, 7]: 22 mm | inhibition zone, Bacillus Cereus, B [4, 8]: 25 mm | inhibition zone, Bacillus Cereus, C [4, 9]: 34 mm | inhibition zone, Chrysosporium keratinophilum, A [5, 7]: 22 mm | inhibition zone, Chrysosporium keratinophilum, B [5, 8]: 28 mm | inhibition zone, Chrysosporium keratinophilum, C [5, 9]: 39 mm | inhibition zone, Escherichia coli, A [6, 7]: 26 mm | inhibition zone, Escherichia coli, B [6, 8]: 32 mm | inhibition zone, Escherichia coli, C [6, 9]: 50 mm
